Patent publication US9969775B2, “CGRP antagonist peptides” (Ferring B.V., priority 2015, dated 2018)
Numbered stars: 1 amine (or outer) side, 2 acyl side, 3 side chain; on linkers, the order of the positions; unused ones are H or OH. Bridge positions count the residues as written; N and C are the ends. Square brackets hold non-standard residues; d marks the D form. Peptide text beside a SMILES is read from it. * marks the point of attachment. Phe(3-CH2NH2) = O=C([C@H](Cc1cccc(CN[*:3])c1)N[*:1])[*:2]; Phe(2-CONH2) = NC(=O)c1ccccc1C[C@H](N)C(=O)O; Phe(4-CH2NH2) = NCc1ccc(C[C@H](N)C(=O)O)cc1; X13 = N#CN=C(N)NCC[C@H](N[*:1])C(=O)[*:2]; Phe(3-CN) = N#Cc1cccc(C[C@H](N)C(=O)O)c1; Picolinoyl(5-F) = O=C(c1ccc(F)cn1)*; Orn(iPr) = CC(C)NCCC[C@H](N)C(=O)O; Benzoyl(4-F) = O=C(c1ccc(F)cc1)*; 3Pal = N[C@@H](Cc1cccnc1)C(=O)O; ΔPro = O=C(O)[C@@H]1C=CCN1; Orn = NCCC[C@H](N)C(=O)O; X8 = CC(C)NCCOCCOCC(=O)*; X7 = O=C(c1cc(F)ccn1)*; X1 = O=C(c1ncccc1F)*; X6 = O=C(c1ccncn1)*

Columns and labels:
[1] = biological target: T1, hCGRP receptor (CALCRL:RAMP1) (Homo sapiens, UniProt O60894+Q16602); assay: CGRP receptor antagonist activity measured by cAMP assay (HTRF); type: cell-based; conditions: agonist human α-CGRP; for Emax: % MPE: percent of the maximal possible effect, read-out: hCGRP-R Efficacy Antag (%) Ave; for IC50: GeneBLAzer CALCRL:RAMP1-CRE-bla Freestyle 293F cells, 30 minutes, read-out: hCGRP-R IC50 Ave
T1 construct: host or cells: GeneBLAzer CALCRL:RAMP1-CRE-bla Freestyle 293F
T1 sequence (Q16602 23-461): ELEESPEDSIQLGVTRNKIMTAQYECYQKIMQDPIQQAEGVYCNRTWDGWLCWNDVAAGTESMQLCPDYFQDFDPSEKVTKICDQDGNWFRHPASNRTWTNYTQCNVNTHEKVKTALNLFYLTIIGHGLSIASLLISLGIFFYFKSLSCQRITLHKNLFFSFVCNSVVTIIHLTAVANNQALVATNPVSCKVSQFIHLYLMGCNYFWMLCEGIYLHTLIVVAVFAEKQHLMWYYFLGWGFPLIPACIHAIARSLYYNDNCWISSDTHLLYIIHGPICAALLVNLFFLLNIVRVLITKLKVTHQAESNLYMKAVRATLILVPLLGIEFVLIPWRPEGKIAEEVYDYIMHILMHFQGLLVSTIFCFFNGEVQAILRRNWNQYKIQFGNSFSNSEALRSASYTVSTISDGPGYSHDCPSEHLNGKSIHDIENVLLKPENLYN
T1 sequence (O60894 27-148): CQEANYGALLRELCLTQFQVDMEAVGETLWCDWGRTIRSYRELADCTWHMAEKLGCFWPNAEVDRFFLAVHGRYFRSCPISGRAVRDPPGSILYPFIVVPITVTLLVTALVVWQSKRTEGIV
Method: Example 6: CGRP Receptor Antagonist Activity Measured by cAMP Assay
CGRP receptor agonists increase intracellular cyclic adenosine mono-phosphate (cAMP). CGRP receptor antagonists can reduce the agonist effect. Antagonist activity was assessed by measurement of cyclic adenosine mono-phosphate (cAMP) using cell line stably expressing the hCGRP receptor (GeneBLAzer® CALCRL:RAMP1-CRE-bla Freestyle™ 293F, Invitrogen). hCGRP receptor expressing cells were maintained in DMEM high-glucose with GlutaMAX™ containing 10% (v/v) FBS, 0.1 mM NEAA, 25 mM HEPES, 5 ug/ml Blasticidin, 100 ug/ml Hygromycin, and 400 ug/ml Geneticin at 37° C. under 5% CO2 in a humidified atmosphere. For cAMP measurement, cells were washed once with 5 ml 1×PBS, cell maintenance media was replaced with compound buffer ((CB): DMEM containing 0.1% BSA and 0.5 mM IBMX), and flasks were incubated for 1 hour at 37° C. under 5% CO2 in a humidified atmosphere. Cells were removed from culture flasks using non-enzymatic cell dissociation buffer and harvested in CB. The reaction was performed in 384 well white small volume plates (Greiner) at a density of 10,000 cells/well. Cells were exposed to varying concentrations of antagonist compounds for 30 minutes in the presence of a fixed concentration of agonist (human α-CGRP). cAMP levels were measured using an HTRF (homogeneous time resolved fluorescence)-based competitive cAMP immunoassay (cAMP Dynamic 2 Kit, Cisbio), according to the manufacturer's instructions. […] Reported parameters include antagonist potency IC50 (the concentration causing half-maximal inhibition of the agonist response for antagonist compounds) and efficacy (% MPE: percent of the maximal possible effect).

[2] = biological target: T2, hAM2 receptor (CALCRL:RAMP3) (Homo sapiens, UniProt O60896+Q16602); assay: AM2 receptor antagonist activity measured by cAMP assay (HTRF); type: cell-based; conditions: for Emax: % MPE: percent of the maximal possible effect, read-out: hAM2-R Efficacy Antag (%) Ave; for Emax / IC50: agonist human adrenomedullin; for IC50: GeneBLAzer CALCRL:RAMP3-CRE-bla Freestyle 293F cells, read-out: hAM2-R IC50 Ave; for selectivity ratio CGRP/AM2: selectivity ratio for hCGRP over hAM2, calculated from the IC50 values
T2 construct: expressed in transfected cells; host or cells: GeneBLAzer CALCRL:RAMP3-CRE-bla Freestyle 293F
T2 sequence (Q16602 23-461): as the sequence (Q16602 23-461) above
T2 sequence (O60896 24-148): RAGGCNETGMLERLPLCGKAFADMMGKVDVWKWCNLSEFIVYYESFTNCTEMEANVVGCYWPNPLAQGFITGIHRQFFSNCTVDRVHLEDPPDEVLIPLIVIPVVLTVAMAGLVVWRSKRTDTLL

SMILES	Emax [1] [%]	IC50 [1] [nM]	Emax [2] [%]	IC50 [2] [nM]	selectivity ratio CGRP/AM2 [2]
CC(C)[C@@H]1NC(=O)[C@H](CC(=O)O)NC(=O)[C@H](CCCN)NC(=O)[C@@H](NC(=O)[C@H](Cc2ccc(O)cc2)NC(=O)[C@H](NC(=O)c2ccc(F)cn2)C(C)C)CSSC[C@@H](C(=O)N[C@@H](Cc2cccnc2)C(N)=O)NC(=O)[C@H](Cc2ccccc2)NC(=O)[C@@H]2CCCN2C(=O)CNC1=O [Compound 12, Picolinoyl(5-F)-D-Val-Tyr-c(Cys-Orn-Asp-Val-Gly-Pro-Phe-Cys)-3Pal-NH2] ({Picolinoyl(5-F)}-[dV]YC[Orn]DVGPFC[3Pal]-NH2; disulfide 3-10)	100	0.11	100	18	172
CC(C)NCCOCCOCC(=O)NCCC[C@@H]1NC(=O)[C@@H](NC(=O)[C@H](Cc2ccc(O)cc2)NC(=O)[C@H](NC(=O)c2ccc(F)cn2)C(C)C)CSSC[C@@H](C(=O)N[C@@H](Cc2cccnc2)C(N)=O)NC(=O)[C@H](Cc2ccccc2)NC(=O)[C@@H]2CCCN2C(=O)CNC(=O)[C@H](C(C)C)NC(=O)[C@H](CC(=O)O)NC1=O [Compound 13, Picolinoyl(5-F)-D-Val-Tyr-c(Cys-Orn(CO—CH2—(O—(CH2)2)2—NH-iPr)-Asp-Val-Gly-Pro-Phe-Cys)-3Pal-NH2] ({Picolinoyl(5-F)}-[dV]YC[Orn](X8)DVGPFC[3Pal]-NH2; disulfide 3-10)	100	0.1	100	26	249
CC(C)NCCC[C@@H]1NC(=O)[C@@H](NC(=O)[C@H](Cc2ccc(O)cc2)NC(=O)[C@H](NC(=O)c2ccc(F)cn2)C(C)C)CSSC[C@@H](C(=O)N[C@@H](Cc2cccnc2)C(N)=O)NC(=O)[C@H](Cc2ccccc2)NC(=O)[C@@H]2CCCN2C(=O)CNC(=O)[C@H](C(C)C)NC(=O)[C@H](CC(=O)O)NC1=O [Compound 14, Picolinoyl(5-F)-D-Val-Tyr-c(Cys-Orn(iPr)-Asp-Val-Gly-Pro-Phe-Cys)-3Pal-NH2] ({Picolinoyl(5-F)}-[dV]YC[Orn(iPr)]DVGPFC[3Pal]-NH2; disulfide 3-10)	100	0.12	100	20	167
CC(C)[C@@H]1NC(=O)[C@H](CC(=O)O)NC(=O)[C@H](CCCNC(=N)N)NC(=O)[C@@H](NC(=O)[C@H](Cc2ccc(O)cc2)NC(=O)[C@H](NC(=O)c2ccncn2)C(C)C)CSSC[C@@H](C(=O)N[C@@H](Cc2cccnc2)C(N)=O)NC(=O)[C@H](Cc2ccccc2)NC(=O)[C@@H]2CCCN2C(=O)CNC1=O [Compound 16] (X6-[dV]YCRDVGPFC[3Pal]-NH2; disulfide 3-10)	100	0.07	101	6.8	93
CC(C)[C@@H]1NC(=O)[C@H](CC(=O)O)NC(=O)[C@H](CCCNC(=N)N)NC(=O)[C@@H](NC(=O)[C@H](Cc2ccc(O)cc2)NC(=O)[C@H](NC(=O)c2ncccc2F)C(C)C)CSSC[C@@H](C(=O)N[C@@H](Cc2cccnc2)C(N)=O)NC(=O)[C@H](Cc2ccccc2)NC(=O)[C@@H]2CCCN2C(=O)CNC1=O [Compound 17] (X1-[dV]YCRDVGPFC[3Pal]-NH2; disulfide 3-10)	100	0.05	100	7.1	148

The remaining lines, values ahead:

Emax [1] [%]	IC50 [1] [nM]	Emax [2] [%]	IC50 [2] [nM]	selectivity ratio CGRP/AM2 [2]	SMILES
100	0.1	99	58	610	CC(C)[C@@H]1NC(=O)[C@H](CC(=O)O)NC(=O)[C@H](CCCNC(=N)N)NC(=O)[C@@H](NC(=O)[C@H](Cc2ccccc2C(N)=O)NC(=O)[C@H](NC(=O)c2ccc(F)cc2)C(C)C)CSSC[C@@H](C(=O)N[C@@H](Cc2cccnc2)C(N)=O)NC(=O)[C@H](Cc2ccccc2)NC(=O)[C@@H]2CCCN2C(=O)CNC1=O [Compound 15] ({Benzoyl(4-F)}-[dV][Phe(2-CONH2)]CRDVGPFC[3Pal]-NH2; disulfide 3-10)
100	0.16	98	8.1	52	CC(C)[C@@H]1NC(=O)[C@H](CC(=O)O)NC(=O)[C@H](CCCNC(=N)N)NC(=O)[C@@H](NC(=O)[C@H](Cc2ccc(O)cc2)NC(=O)[C@H](NC(=O)c2cc(F)ccn2)C(C)C)CSSC[C@@H](C(=O)N[C@@H](Cc2cccnc2)C(N)=O)NC(=O)[C@H](Cc2ccccc2)NC(=O)[C@@H]2CCCN2C(=O)CNC1=O [Compound 18] (X7-[dV]YCRDVGPFC[3Pal]-NH2; disulfide 3-10)
100		100			CC(C)[C@@H]1NC(=O)[C@H](CC(=O)O)NC(=O)[C@H](CCNC(N)=NC#N)NC(=O)[C@@H](NC(=O)[C@H](Cc2ccc(O)cc2)NC(=O)[C@H](NC(=O)c2ccc(F)cc2)C(C)C)CSSC[C@@H](C(=O)N[C@@H](Cc2cccnc2)C(N)=O)NC(=O)[C@H](Cc2ccccc2)NC(=O)[C@@H]2CCCN2C(=O)CNC1=O [Compound 19, Bz(4-F)-D-Val-Tyr-c(Cys-norArg(CN)-Asp-Val-Gly-Pro-Phe-Cys)-3Pal-NH2] ({Benzoyl(4-F)}-[dV]YC[X13]DVGPFC[3Pal]-NH2; disulfide 3-10)
100	0.18	100	54	309	CC(C)[C@@H]1NC(=O)[C@H](CC(=O)O)NC(=O)[C@H](CCCNC(=N)N)NC(=O)[C@@H](NC(=O)[C@H](Cc2ccc(O)cc2)NC(=O)[C@H](NC(=O)c2ccc(F)cc2)C(C)C)CSSC[C@@H](C(=O)N[C@@H](Cc2cccnc2)C(N)=O)NC(=O)[C@H](Cc2ccc(CN)cc2)NC(=O)[C@@H]2CCCN2C(=O)CNC1=O [Compound 20, Bz(4-F)-D-Val-Tyr-c(Cys-Arg-Asp-Val-Gly-Pro-Phe(4-CH2NH2)-Cys)-3Pal-NH2] ({Benzoyl(4-F)}-[dV]YCRDVGP[Phe(4-CH2NH2)]C[3Pal]-NH2; disulfide 3-10)
100	0.13	99	33	258	CC(C)[C@@H]1NC(=O)[C@H](CC(=O)O)NC(=O)[C@H](CCCNC(=N)N)NC(=O)[C@@H](NC(=O)[C@H](Cc2ccc(O)cc2)NC(=O)[C@H](NC(=O)c2ccc(F)cc2)C(C)C)CSSC[C@@H](C(=O)N[C@@H](Cc2cccnc2)C(N)=O)NC(=O)[C@H](Cc2cccc(C#N)c2)NC(=O)[C@@H]2CCCN2C(=O)CNC1=O [Compound 21, Bz(4-F)-D-Val-Tyr-c(Cys-Arg-Asp-Val-Gly-Pro-Phe(3-CN)-Cys)-3Pal-NH2] ({Benzoyl(4-F)}-[dV]YCRDVGP[Phe(3-CN)]C[3Pal]-NH2; disulfide 3-10)
100	0.19	101	33	175	CC(C)[C@@H]1NC(=O)[C@H](CC(=O)O)NC(=O)[C@H](CCCNC(=N)N)NC(=O)[C@@H](NC(=O)[C@H](Cc2cccc(CN)c2)NC(=O)[C@H](NC(=O)c2ccc(F)cc2)C(C)C)CSSC[C@@H](C(=O)N[C@@H](Cc2cccnc2)C(N)=O)NC(=O)[C@H](Cc2ccc(O)cc2)NC(=O)[C@@H]2C=CCN2C(=O)CNC1=O [Compound 22, Bz(4-F)-D-Val-Phe(3-CH2NH2)-c(Cys-Arg-Asp-Val-Gly-Dhp-Tyr-Cys)-3Pal-NH2] ({Benzoyl(4-F)}-[dV][Phe(3-CH2NH2)]CRDVG[ΔPro]YC[3Pal]-NH2; disulfide 3-10)
